According to ChEMBL document CHEMBL1130809, “Anti-inflammatory/antiarthritic ketonic bisphosphonic acid esters” (1998):

Columns and labels:
Type in all cases: functional
Conditions in all cases: route oral
Mus musculus [1] = test: Inhibition of delayed type hypersensitivity granuloma in mice following 10 mg/kg p.o. administration.
Mus musculus [2] = test: Inhibition of antigen-induced arthritis in mice following 10 mg/kg p.o. administration.
Mus musculus [3] = test: Compound was tested for antiarthritic activity in murine model of antigen-induced arthritis. upon 10 mg/kg peroral administration
Mus musculus [4] = test: Compound was tested for anti-inflammatory activity in delayed type hypersensitivity granuloma upon 100 mg/kg peroral administration
Mus musculus [5] = test: Compound was tested for antiarthritic activity in murine model of antigen-induced arthritis upon 100 mg/kg peroral administration
Mus musculus [6] = test: Compound was tested for antiarthritic activity in murine model of antigen-induced arthritis upon 10 mg/kg peroral administration

SMILES	inhibition in vivo at 10 mg/kg (Mus musculus [1]) [%]	inhibition in vivo at 10 mg/kg (Mus musculus [2]) [%]	further results
CCOP(=O)(OCC)C(CCC(=O)c1cccc(I)c1)P(=O)(OCC)OCC	5	–	–
CCOP(=O)(OCC)C(CCC(O)c1ccccc1)P(=O)(OCC)OCC (stereo not given)	39	–	–
CCOP(=O)(OCC)C(CC(=O)c1ccccc1)P(=O)(OCC)OCC	7	11	–
CCOP(=O)(OCC)C(CCC(=O)c1cccc(Br)c1)P(=O)(OCC)OCC	59	22	–
CCOP(=O)(OCC)C(CCC(=O)c1cccc(F)c1)P(=O)(OCC)OCC	44	40	ED30 (Mus musculus [3]): 0.1 mg/kg
CCOP(=O)(OCC)C(CCC(=O)c1cccnc1)P(=O)(OCC)OCC	51	61	–
CC1(C)COP(=O)(C(CCC(=O)c2ccccc2)P2(=O)OCC(C)(C)CO2)OC1	36	–	–
CCOP(=O)(OCC)C(CCC(=O)c1ccc(NC(=O)c2ccccc2)cc1)P(=O)(OCC)OCC	63	4	–
CC1(C)COP(=O)(C(CCC(=O)c2cccnc2)P2(=O)OCC(C)(C)CO2)OC1	38	28	ED30 (Mus musculus [3]): 0.4 mg/kg
CCOP(=O)(OCC)C(CCC(=O)c1cccc(NS(C)(=O)=O)c1)P(=O)(OCC)OCC	37	33	–
CCOP(=O)(OCC)C(CCC(=O)c1ccco1)P(=O)(OCC)OCC	23	11	–
CC1(C)COP(=O)(C(CCC(=O)c2ccoc2)P2(=O)OCC(C)(C)CO2)OC1	45	16	–
O=P(O)(O)C(Cl)(Cl)P(=O)(O)O [CLODRONIC ACID]	–	–	ED30 (Mus musculus [4]): 30 mg/kg; inhibition in vivo at 100 mg/kg (Mus musculus [4]): 48%; ED30 (Mus musculus [5]): 50 mg/kg; inhibition in vivo at 100 mg/kg (Mus musculus [5]): 42%
CCOP(=O)(OCC)C(CC(C(=O)c1ccccc1)c1ccccc1)P(=O)(OCC)OCC (stereo not given)	65	–	ED30 (Mus musculus [6]): 50 mg/kg; inhibition in vivo at 10 mg/kg (Mus musculus [6]): 54%
CCOP(=O)(OCC)C(CCC(=O)c1ccc(NC(C)=O)cc1)P(=O)(OCC)OCC	75	10	–
CCOP(=O)(OCC)C(CCC(=O)c1ccccc1)P(=O)(OCC)OCC	51	10	–
CCOP(=O)(OCC)C(CCCc1ccccc1)P(=O)(OCC)OCC	44	11	–
CCOP(=O)(OCC)C(CCC(=O)c1ccccn1)P(=O)(OCC)OCC	43	47	–
CCOP(=O)(OCC)C(CCC(=O)c1cccc(Cl)c1)P(=O)(OCC)OCC	10	26	–
CCOC(=O)Nc1ccc(C(=O)CCC(P(=O)(OCC)OCC)P(=O)(OCC)OCC)cc1	43	18	–
CC1(C)COP(=O)(C(CCC(=O)c2cccc(F)c2)P2(=O)OCC(C)(C)CO2)OC1	< 57	48	ED30 (Mus musculus [3]): 0.01 mg/kg
